# Where two headings read alike, the source gives them in different places.
# Legend:
# [1] = test system: herpes simplex type 1 virus (HSV-1) (KOS); experiment: Inhibition of HSV-1 cytopathogenicity in Vero cell culture; format: cell-based
# [2] = test system: herpes simplex type 2 virus (HSV-2) (G); experiment: Inhibition of HSV-2 cytopathogenicity in Vero cell culture; format: cell-based; conditions: 50% inhibition of cytopathogenicity, for 1:1 mixtures IC50 refers to known antiviral drugs
# [3] = test system: thymidine kinase-positive (TK+) varicella-zoster virus (YS); experiment: Inhibition of TK+ VZV cytopathogenicity in Vero cell culture; format: cell-based
# [4] = test system: thymidine kinase-deficient (TK−) varicella-zoster virus (YS/R); experiment: microbe, parasite or virus in culture; format: cell-based
# [5] = test system: human cytomegalovirus (AD-169); experiment: Inhibition of HCMV cytopathogenicity in Vero cell culture; format: cell-based; conditions: Vero cell culture, 50% inhibition of cytopathogenicity, for 1:1 mixtures IC50 refers to known antiviral drugs
# PRPP synthetase = PRPP synthetase (UniProt P0A717); experiment: PRPP synthetase reaction, conversion to diphosphates and inhibition of AMP phosphorylation; format: biochemical; conditions: compound as substrate of PRPP synthetase
# Protocol: Enzymatic Conversion of Acyclic Nucleoside Phosphonates and Nucleotide 5′-Monophosphate Analog to Their Antivirally Active Diphosphates (Triphosphate Equivalents). Substrate affinities of acyclic nucleoside phosphonates 4, 20, 21, and dinucleotide analog 24 for PRPP synthetase as well as their inhibitory effect against the enzyme were evaluated according to the established procedures. See, e.g., Balzarini et al. (1991) J. Biol. Chem. 266: 8686-8689 and references cited therein. The assays were then terminated after 4 h by the addition of MeOH. HPLC on an anion-exchange Partisphere column was used to analyze the formation of […] 21pp, PMEApp, 4pp, 20pp, and 24pp.
# [6] = target: T1, calf mucosal adenosine deaminase (ADA, EC 3.5.4.4) (Bos taurus, UniProt P56658); experiment: Substrate activity and competitive inhibition of adenosine deaminase; format: biochemical
# T1 sequence (P56658 1-363): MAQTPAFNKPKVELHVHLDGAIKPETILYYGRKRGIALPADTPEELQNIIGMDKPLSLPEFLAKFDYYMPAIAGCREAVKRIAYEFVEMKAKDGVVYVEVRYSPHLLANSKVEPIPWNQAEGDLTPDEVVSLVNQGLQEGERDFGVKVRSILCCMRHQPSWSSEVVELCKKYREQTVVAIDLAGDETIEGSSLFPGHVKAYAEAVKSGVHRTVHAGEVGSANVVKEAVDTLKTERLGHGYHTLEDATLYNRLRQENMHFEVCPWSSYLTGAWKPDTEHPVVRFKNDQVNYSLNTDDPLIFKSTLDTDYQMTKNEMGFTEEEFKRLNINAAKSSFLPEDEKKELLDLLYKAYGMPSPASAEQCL
# HIV-1 (IIIB) = experiment: microbe, parasite or virus in culture; format: cell-based; conditions: Human immunodeficiency virus 1, IIIB; MT4 cells, average of duplicates; read-out: IC50 HIV-1 (IIIB)
# HIV-2 (LAV-2) = experiment: Inhibition of HIV-2 cytopathogenicity in MT4 cells; format: cell-based, human immunodeficiency virus; conditions: Human immunodeficiency virus 2; MT4 cells, average of duplicates; read-out: IC50 HIV-2 (LAV-2)
# [7] = test system: moloney murine sarcoma virus (MSV); experiment: Inhibition of MSV cytopathogenicity in CEM cells (cell-protection assay); format: cell-based; conditions: Moloney murine sarcoma virus, CCRF-CEM; CEM cells, average of duplicates; read-out: IC50 MSV
# HSV-1 (KOS) = experiment: Anti-HSV-1 activity in vivo, HSV-1-induced mortality in NMRI mice; conditions: 6 days; for mean day of animal death / mean day of symptom initiation: terminated day 21; for responders at 100 mg/kg / responders at 150 mg/kg / responders at 250 mg/kg: Human alphaherpesvirus 1, ip, 504 h
# MSV = conditions: for mean day of animal death / percentage of MSV-infected mice alive at day 21 postinfection / percentage of MSV-infected mice without tumors at day 21 postinfection: two injections; for mean day of tumor initiation: two injections within two days
# MT4 cells = experiment: Toxicity toward MT4 cells
# CEM cells = experiment: Toxicity toward CEM cells
# [8] = LD50 and toxicity in mice, intraperitoneal
# [9] = Lipophilicity, 1-octanol/water partition coefficient; conditions: 1-octanol/water (0.10 M phosphate buffer)
# [10] = Solubility in water (phosphate buffer, UV absorbance); conditions: phosphate buffer, pH 6.8, aqueous buffer, thermodynamic from solid
# [11] = Vero cell culture, 50% inhibition of cytopathogenicity, for 1:1 mixtures IC50 refers to known antiviral drugs
smiles,measurement,setting,value
"Nc1nc2ncn(COCCCl)c2c(=O)[nH]1 [Compound 7, 7-[(2-Chloroethoxy)methy]guanine]",IC50 HSV-1 (KOS),"[1]; Vero cell culture, 50% inhibition of virus-induced cytopathogenicity, mean of duplicates, for 1:1 (W/W) mixtures IC50 refers to known antiviral drugs",>128 µg/mL
same,IC50 HSV-2 (G),[2],>128 µg/mL
same,IC50 TK+VZV (YS),[3]; [11],>128 µg/mL
same,IC50 TK−VZV (YS/R),[4]; [11],>128 µg/mL
same,IC50 HCMV (AD-169),[5],>128 µg/mL
same,"HeLa cell, concentration causing microscopically visible change or disruption in about 50% of the cell sheet",HeLa cells,157 µg/mL
same,"Vero cell, concentration causing microscopically visible change or disruption in about 50% of the cell sheet",Vero cells,145 µg/mL
"Nc1ncnc2c1ncn2[C@@H]1O[C@H](COP(=O)(O)O)[C@@H](O)[C@H]1O [AMP 21, adenosine 5′-monophosphate, reference compound]",Km,PRPP synthetase,240 µM
"COC1=C(OC)/C(=C/COP(=O)(O)COCCn2cnc3c(N)ncnc32)OC1=O [Compound 28, [1-(Adenin-9-yl-ethoxy)methyl]phosphono-6-yl-(Z)-4-(ethylidene)-2,3-dimethoxy-Δ^a,b-butenolide]",ADA substrate / inhibitor property in words,[6],neither a good substrate nor an inhibitor
same,IC50,"[1]; Human alphaherpesvirus 1, Vero, read-out: IC50 HSV-1 (KOS)",3.7 µg/mL
same,IC50 TK+VZV (YS),[3],2.0 µg/mL
same,IC50,"[4]; Human alphaherpesvirus 3, Vero, read-out: IC50 TK−VZV (YS/R)",2.4 µg/mL
same,IC50,"[5]; Human betaherpesvirus 5, AD169, read-out: IC50 HCMV (AD-169)",5.4 µg/mL
same,IC50,HIV-1 (IIIB),1.4 µg/mL
same,IC50,HIV-2 (LAV-2),1 µg/mL
same,IC50,[7],0.93 µg/mL
same,protection against HSV-induced mortality,HSV-1 (KOS); 100 mg/kg i.p.,same level of protection
same,mean day of animal death,HSV-1 (KOS); 100 mg/kg/day i.p.,>21 days
same,mean day of symptom initiation,HSV-1 (KOS); 100 mg/kg/day i.p.,>21 days
same,mean day of animal death,HSV-1 (KOS); 150 mg/kg/day i.p.,>21 days
same,mean day of symptom initiation,HSV-1 (KOS); 150 mg/kg/day i.p.,>21 days
same,mean day of animal death,HSV-1 (KOS); 250 mg/kg/day i.p.,>21 days
same,mean day of symptom initiation,HSV-1 (KOS); 250 mg/kg/day i.p.,>21 days
same,responders at 100 mg/kg,"HSV-1 (KOS); 100 mg/kg/day i.p., read-out: percentage of HSV-1-infected mice alive at day 21 postinfection",100%
same,responders at 100 mg/kg,"HSV-1 (KOS); 100 mg/kg/day i.p., read-out: percentage of HSV-1-infected mice without symptoms at day 21 postinfection",100%
same,responders at 150 mg/kg,"HSV-1 (KOS); 150 mg/kg/day i.p., read-out: percentage of HSV-1-infected mice alive at day 21 postinfection",100%
same,responders at 150 mg/kg,"HSV-1 (KOS); 150 mg/kg/day i.p., read-out: percentage of HSV-1-infected mice without symptoms at day 21 postinfection",100%
same,responders at 250 mg/kg,"HSV-1 (KOS); 250 mg/kg/day i.p., read-out: percentage of HSV-1-infected mice alive at day 21 postinfection",100%
same,responders at 250 mg/kg,"HSV-1 (KOS); 250 mg/kg/day i.p., read-out: percentage of HSV-1-infected mice without symptoms at day 21 postinfection",100%
same,"HeLa cell, concentration causing microscopically visible change or disruption in about 50% of the cell sheet",HeLa cells; human,139 µg/mL
same,"Vero cell, concentration causing microscopically visible change or disruption in about 50% of the cell sheet",Vero cells; African green monkey,170 µg/mL
same,mean day of animal death,MSV; 10 mg/kg/day i.p.,18.9 ± 1.8 days
same,percentage of MSV-infected mice alive at day 21 postinfection,MSV; 10 mg/kg/day i.p.,(97%)
same,mean day of tumor initiation,MSV; 10 mg/kg/day i.p.,14.0 ± 2.1 days
same,mean day of animal death,MSV; 20 mg/kg/day i.p.,>21 days
same,percentage of MSV-infected mice alive at day 21 postinfection,MSV; 20 mg/kg/day i.p.,(100%)
same,percentage of MSV-infected mice without tumors at day 21 postinfection,MSV; 20 mg/kg/day i.p.,(80%)
same,mean day of tumor initiation,MSV; 20 mg/kg/day i.p.,17.9 ± 1.7 days
same,mean day of animal death,MSV; 50 mg/kg/day i.p.,>21 days
same,percentage of MSV-infected mice alive at day 21 postinfection,MSV; 50 mg/kg/day i.p.,(100%)
same,percentage of MSV-infected mice without tumors at day 21 postinfection,MSV; 50 mg/kg/day i.p.,(95%)
same,mean day of tumor initiation,MSV; 50 mg/kg/day i.p.,18.4 ± 1.4 days
same,weight loss in surviving animals,"MSV; MSV-infected NMRI mice, i.p.",about 2 g
same,"MT4 cell, concentration reducing the number of viable uninfected cells by 50%",MT4 cells,265 µg/mL
same,"CEM cell, concentration reducing the number of viable uninfected cells by 50%",CEM cells,280 µg/mL
same,LD50,"[8]; NMRI, mouse, in vivo, ip",710 mg/kg
same,level up to which no toxicity was shown,"[8]; mice, intraperitoneal",400 mg/kg
same,logP at […],[9],2.09
same,solubility at 20 h,[10],7420 µg/mL
